Measured values taken from patent US20240067603A1, “CUBANYL BIGUANIDE COMPOUNDS” (REGENTS OF THE UNIVERSITY OF MINNESOTA, priority 2020, published 2024).
Where two headings read alike, the source gives them in different places.

Experiments:
CYP3A4 = CYP3A4 (Homo sapiens, UniProt P08684); assay: CYP3A4 Supersome mediated EET biosynthesis; format: biochemical; parameters: purchased Corning; host or cells: insect cells (microsomes)
Method: FIG. 1. Effects of HCB on CYP3A4 Supersome™ mediated EET biosynthesis. A 50 ul reaction in a 1.5 ml microcentrifuge tube contains the following components: arachidonic acid (60 μM), NDAPH (2 mM), DMSO or drug, CYP3A4 Supersome™ (1 μM) in potassium phosphate buffer (pH=7.4). The reaction was initiated by the addition of Supersome™ to the reaction mixture. After incubation at 37° C. for 30 minutes, 50 ul of acetonitrile spiked with 13C-EET internal standards was added and vortexed vigorously to terminate the reaction. Microcentrifuge tubes were centrifuged at 16,000×rpm for 10 min to precipitate proteins and other insoluble debris and 80 ul supernatant was transferred into HPLC vials and analyzed by an LC-MS as described previously (1). Results are expressed as mean±S.D. (n=3).
FIG. 2. Effects of DCB and HCB on CYP3A4 Supersome™ mediated EET biosynthesis. A 0.5 ml reaction in a 10 ml glass test tube contains the following components: arachidonic acid ([…]), NDAPH (2 mM), DMSO or drug solution (0.5 μl), CYP3A4 Supersome™ (80 nM) and 450.5 ul potassium phosphate buffer (pH=7.4). The reaction was initiated by the addition of Supersome™ to the rest. After incubation at 37° C. for 30 minutes, 0.5 ml of dichloromethane was added and vortexed vigorously to terminate the reaction. Organic phase and aqueous phase were separated by centrifugation at 3,000×rpm for 10 minutes. Two hundred microliters of the organic phase was withdrawn and evaporated to dryness. The residues were reconstituted with 20 ul methanol containing ^13C-EET internal standards and analyzed by an LC-MS as described previously (1). Results are expressed as mean±S.D. (n=3, * indicates a statistically significant difference from the control).
Recombinant Microsomal CYP-mediated EET Biosynthesis. CYP Supersomes™ (Corning, NY) (1 μM, final concentration) were incubated at 37° C. for 30 min in the presence of AA (120 μM) in 50 μl potassium phosphate buffer, (50 mM, pH 7.4), containing 1 mM EDTA and 1 mM NADPH. Reactions were terminated by addition of 50 μL of acetonitrile spiked with ^13C-EET internal standards followed by vigorous vortexing. After centrifugation at 16,000×rpm for 10 minutes to precipitate proteins and other insoluble debris and 80 μL supernatant was transferred into HPLC vials and analyzed by with an LC-ESI/MRM/MS method.
LC-ESI/MRM/MS Method for EET Measurement. EETs were measured by an LC-ESI/MRM/MS analytical method on a ThermoFisher Vantage triple quadrupole mass spectrometer (ThermoFisher, San Jose, CA) coupled with an UltiMate 3000 HPLC (ThermoFisher, San Jose, CA), using argon as the collision gas. Negative ion monitoring was performed at the following diagnostic product ions: 319 m/z→155 m/z for 8,9-EET; 319 m/z→179 m/z for 11,12-EET; 319 m/z→219 m/z for 14,15-EET; 339 m/z→163 m/z for 8,9-[^13C-20]EET; 339 m/z→233 m/z for 11,12-[^13C-20]EET; and 339 m/z→259 m/z for 14,15-[^13C-20]EET. Base-line resolution of EET regioisomers was achieved on a Phenomenex Luna C18 (2) reverse phase capillary column (250×0.5 mm, 5-μm particles) using the following mobile phase combinations: isocratic 5% B for 5 min, gradient 5-70% B for 5 min, hold at 70% for 30 min and then 95% for 10 min; A: 0.01% acetic acid in water, B: 0.01% acetic acid in acetonitrile; 10 μl/min flow rate. A standard curve was obtained by linear regression of the peak area ratio of authentic EET regioisomers against internal standards. The amount of EETs in samples was calculated according to the standard curve.

AMPKα = AMPKα phosphorylation (Thr172) in MCF-7 cells, Western blotting; format: cell-based, human; settings: 10 μM, with and without serum, FIG. 7
Method: FIG. 7. Effect of HCB on MCF-7 AMPKα phosphorylation (Thr172). MCF-7 cells were grown in complete media to 70% confluency and treated with 10 μM HCB. Cells were harvested at varied time (0-24 hr) and total proteins were extracted and analyzed by Western blotting. For 0% serum experiment, complete media was replaced with serum, phenol red and antibiotics free media 16 hours before treatment. Quantitation results are expressed as mean±S.D. (n=3, * indicates statistically significant difference, p<0.05). MCF-7 cells were grown in complete media (10% serum) to 80% confluence. Left panel: HCB was added to a final concentration of 10 μM in complete media; Right panel: complete media was replaced with serum free media and serum starved for 16 hours before HCB was added to a final concentration of 10 μM. At indicated time points after the addition of HCB, cells were harvested and analyzed by Western blotting. AMPK activation was reported as fractional Thr172 phosphorylation±S.D. (n=3, * indicates statistically significant difference from control).

Chain of CYP3A4 (P08684 whole entry): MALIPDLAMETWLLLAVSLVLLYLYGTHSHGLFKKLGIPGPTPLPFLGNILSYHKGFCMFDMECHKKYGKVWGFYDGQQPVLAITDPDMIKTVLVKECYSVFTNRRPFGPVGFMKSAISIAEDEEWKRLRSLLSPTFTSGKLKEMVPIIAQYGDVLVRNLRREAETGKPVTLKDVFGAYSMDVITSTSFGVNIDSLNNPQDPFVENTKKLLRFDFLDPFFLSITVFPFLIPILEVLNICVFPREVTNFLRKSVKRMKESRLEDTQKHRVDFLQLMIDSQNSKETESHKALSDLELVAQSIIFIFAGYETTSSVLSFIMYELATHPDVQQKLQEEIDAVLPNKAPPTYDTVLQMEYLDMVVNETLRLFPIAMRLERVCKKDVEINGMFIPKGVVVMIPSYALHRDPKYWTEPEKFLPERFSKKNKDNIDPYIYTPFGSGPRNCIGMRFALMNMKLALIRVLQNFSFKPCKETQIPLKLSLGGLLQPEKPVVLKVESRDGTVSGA

For CCCCCCNC(=N)NC(=N)NCC12C3C4C5C3C1C5C42 (stereo not drawn) [HCB, Hexyl Cubanomethyl Biguanide], which IC50 (CYP3A4; (±)8,9-EET, Example B text, read-out: IC50, CYP3A4 biosynthesis of (±)8,9-EET) is on record?
The IC50 was 28 µM.

What about the IC50 (CYP3A4; (±)11,12-EET, Example B text, read-out: IC50, CYP3A4 biosynthesis of (±)11,12-EET) of the same compound?
Its IC50 is 56 µM.

What about the IC50 (CYP3A4; (±)14,15-EET, Example B text, read-out: IC50, CYP3A4-mediated biosynthesis of (±)14,15-EET) of the same compound?
The IC50 was 3.8 µM.

What about the Ki (CYP3A4; (±)-14,15-EET, read-out: Ki, inhibition of biosynthesis of (±)-14,15-EET) of the same compound?
Its Ki is 4.7 µM.

And the IC50 (CYP3A4; FIG. 1, (±)8,9-EET, curve fitting, read-out: IC50 for (±)8,9-EET biosynthesis)?
Its IC50 is 64.8 ± 6.5 µM.

And the IC50 (CYP3A4; FIG. 1, (±)11,12-EET, curve fitting, read-out: IC50 for (±)11,12-EET biosynthesis)?
The IC50 was 26.5 ± 1.9 µM.

And the IC50 (CYP3A4; FIG. 1, (±)14,15-EET, arachidonic acid 60 μM, CYP3A4 Supersome 1 μM, 30 min, curve fitting, read-out: IC50 for (±)14,15-EET biosynthesis)?
The IC50 was 4.7 ± 0.2 µM.

And the “fold more potent than HBB for inhibiting biosynthesis of (±)14,15-EET” value (CYP3A4; HCB vs HBB, CYP3A4)?
The value was ~2.5 fold.

What about the AMPK phosphorylation (AMPKα) of the same compound?
The AMPK phosphorylation was “potent activation”.
